Measured values as given in PubChem BioAssay AID2060510 (Molecular Pharmacology Branch, DTP, NCI, 2025).
Where “and” joins values, the source holds several entries; their conditions need not be identical. Identical values can stand only once.

System: 439559-082-T-J2-PDC spheroids viability
Experiment: Anticancer human tumor 439559-082-T-J2-PDC patient-derived colon adenocarcinoma cell line growth inhibition [GQUAD]
Details: for viability, T/C: stronger effect = lower value
Text: DNA G-quadruplex Stabilizer Agents in Combinations in Complex Spheroids
A high-throughput screen of multi-cell type tumor spheroids was designed to identify active combinations of DNA G-quadruplex stabilizer agents and targeted small molecules. Complex spheroids include a stromal component modeled by human endothelial cells (HUVEC) and fibroblasts modeled by human mesenchymal stem cells (MSCs). The concentration ranges selected for each drug and investigational agent were based upon clinically achievable concentrations if the clinical Cmax of the agent was known.
Compounds. The drugs and investigational agents: pidnarulex (CX-5461; NSC782164), APTO-253 (NSC789042), BRACO-19 (NSC847499), peposertib (NSC802822), ceralasertib (NSC780249), elimusertib (NSC800525), camonsertib (NSC841442), AZD-1390 (NSC803789), olaparib (NSC753686), talazoparib (NSC767125), ART-558 (NSC835418), sotorasib (NSC818433), MRTX-1133 (NSC836407), SN-38 (NSC673596), topotecan (NSC609699), etoposide (NSC141540), doxorubicin (NSC123127), gemcitabine (NSC613327), 5-fluorouracil (NSC19893), paclitaxel (NSC125973), vemurafenib (NSC761431), panobinostat (NSC761190), R-306465 (JNJ-16241199; NSC773264), adavosertib (NSC754352), TP-3654 (NSC805149), carboplatin (NSC241240), KSQ-4279 (NSC840948), and staurosporine (NSC755774) were obtained from the National Cancer Institute (NCI) Developmental Therapeutics Program Chemical Repository (34). The FDA-approved anticancer drug set is available from the NCI Developmental Therapeutics Program. […] The stock solutions were prepared in dimethyl sulfoxide (DMSO, Sigma-Aldrich, St. Louis, MO, cat. D2650) at 800-fold the tested concentration and stored at -70 degrees C prior to their use. All drugs and investigational agents were tested over a range starting from a high concentration at or near the clinical Cmax and decreasing in half-log increments. If the clinical Cmax for an agent had not been determined, the highest concentration tested was 10 microM.
2.3 Cell Culture. All cells were maintained in an incubator at 37 degrees C and 5% CO2 with 95% humidity. The PDC lines were cultured according to standard operating procedures established by the NCI PDMR. All PDCs were thawed and cultured in Matrigel-coated flasks prepared with a working solution of 1X Ham's F-12 nutrient mix, without supplementation (Invitrogen, cat. 11765054), 100 U/mL penicillin-streptomycin (Invitrogen, cat. 15140122), and 2.5% Matrigel (Corning Inc., cat. 354248) for the first three passages. The 857933-349-R-J2-PDC line was cultured in 6C/Colon 1B media, which includes advanced DMEM/F-12 (Thermo Fisher Scientific, cat. 12634028), 10 mM HEPES (Thermo Fisher Scientific, cat. 15630080), 1X GlutaMAX supplement (Thermo Fisher Scientific, cat. 35050061), 0.1 mg/mL primocin (InvivoGen, cat. ant-pm-2), 10% defined fetal bovine serum, heat inactivated (HyClone Laboratories Inc., cat. SH30070.03HI), 50% L-WRN conditioned media (ATCC, cat. CRL-3276), 1.25 mM N-Acetyl-L-cysteine (Sigma-Aldrich, cat. A9165), 10 mM nicotinamide (Sigma-Aldrich, cat. N0636), 1X B-27 supplement (Thermo Fisher Scientific, cat. 17504044), 1X N-2 supplement (Thermo Fisher Scientific, cat. 17502048), 10 microM Y-27632 dihydrochloride (Tocris Bioscience, cat. 1254), and 50 ng/mL human EGF recombinant protein (Thermo Fisher Scientific, cat. PHG0311). The 485176-168-R4-J1-PDC line was cultured in Panc media, which includes all 6C/Colon 1B media components plus 100 ng/mL human FGF-10 (Thermo Fisher Scientific, cat. 100-26), 500 nM SB-431542 (Selleckchem, cat. S1067), and gastrin (Tocris, cat. 3006).
[…]

[1] = compound alone, run of 04/16/2024
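Further: spheroids exposed to the agents for 7 days before readout.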
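Wherever viability, T/C is given: percent of luminescence signal in DMSO vehicle wells taken as 100% viability.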

IC50 (curve of compound)	IC50 [1] [µM]	IC50 (compound alone, run of 04/22/2024) [µM]	SMILES	viability, T/C (compound 0.0316 µM)	viability, T/C (compound 0.1 µM)	viability, T/C (compound 0.316 µM)	viability, T/C (compound 1 µM)	viability, T/C (compound 3.16 µM)	viability, T/C (compound 10 µM)	viability, T/C (compound 0.000999 µM)	viability, T/C (compound 0.00316 µM)	viability, T/C (compound 0.00999 µM)	viability, T/C (compound 0.0999 µM)
> 10 µM			COc1cc(C2c3cc4c(cc3C(OC3OC5COC(C)OC5C(O)C3O)C3COC(=O)C23)OCO4)cc(OC)c1O (centres undefined)	96.1% and 96% and 96.2%	93% and 81.9% and 90.7%	92.8% and 94.6% and 101%	98.3% and 89.7% and 95%	90.2% and 80.1% and 81.5%	62.3% and 61% and 68.8%				
> 10 µM			COc1ccc([C@@H](O)c2cc(-c3ncnc4cc(N5CCOCC5)ccc34)c(F)cc2Cl)nn1	101% and 95.3% and 86.2%	85.9% and 92.8% and 85%	94.8% and 100% and 84.1%	98.8% and 88.3% and 102%	86.5% and 77.7% and 79.9%	91.6% and 78% and 75.7%				
> 10 µM and 5.6 µM and 7.09 µM			COc1cccc2c1C(=O)c1c(O)c3c(c(O)c1C2=O)CC(O)(C(=O)CO)CC3OC1CC(N)C(O)C(C)O1 (centres undefined)	95.9% and 97.8% and 102%	95.7% and 105% and 90.6%	88.5% and 84.1% and 81.5%	78.7% and 80.2% and 79.4%	61.8% and 57.9% and 63.3%	51.2% and 41.3% and 43.4%				
> 10 µM			COc1ncnc(C2CC2)c1-c1ncc2cnn(Cc3ccc(-c4nc(C(F)(F)F)cn4C(C)C)cc3)c2n1	100% and 106% and 101%	101% and 109% and 97.2%	100% and 90.9% and 94.3%	104% and 89% and 94.3%	98.7% and 81.9% and 104%	98.1% and 57.4% and 89.5%				
	> 10	> 10	Cc1[nH]c2ccc(F)cc2c1-c1nc2c3cccnc3c3ncccc3c2[nH]1	103% [middle of 12 runs]	102% [middle of 12 runs]	100% [middle of 12 runs]	94.9% [middle of 12 runs]	86.4% [middle of 12 runs]	89.3% [middle of 12 runs]				
> 0.316 µM			Cc1[nH]c2ccccc2c1CCNCc1ccc(/C=C/C(=O)NO)cc1	112% and 84.7% and 91.9%		101% and 63.2% and 61.6%				105% and 91.6% and 99.8%	94.6% and 105% and 93.3%	91.2% and 92.3% and 95.4%	110% and 81.7% and 79%
> 10 µM			Cc1cccc(N(C)C(=O)C2C(O)CCN2c2nc(C)cc(C(F)(F)F)c2C#N)c1 (centres undefined)	93.8% and 107% and 103%	105% and 93.7% and 99.7%	106% and 102% and 85.8%	109% and 97.2% and 108%	116% and 104% and 109%	88.7% and 92.6% and 98.5%				
	> 10		Cc1cnc(CNC(=O)c2c(=O)c3ccc(N4CCCN(C)CC4)nc3n3c2sc2ccccc23)cn1	98.7% [middle of 12 runs]	93% [middle of 12 runs]	88.6% [middle of 12 runs]	81.6% [middle of 12 runs]	75.7% [middle of 12 runs]	75.7% [middle of 12 runs]				
> 0.316 µM			Cn1ncnc1[C@H]1c2n[nH]c(=O)c3cc(F)cc(c23)N[C@@H]1c1ccc(F)cc1	87.8% and 102% (2×)		91.2% and 91.9% and 86.3%				92.5% and 104% and 94.8%	84.5% and 91.5% and 115%	84.5% and 99.1% and 95.4%	94.9% and 96.3% and 91.8%
0.444 µM and 0.249 µM and 0.24 µM			Nc1ccn(C2OC(CO)C(O)C2(F)F)c(=O)n1 (centres undefined)	83.6% and 83.2% and 89.5%	74.3% and 67.4% and 60.4%	53.7% and 46.2% and 49.7%	38.5% and 30.7% and 32.6%	28.2% and 25.8% and 28.4%	22.9% and 26.9% and 23.2%				
1.76 µM and 0.401 µM and 0.438 µM			O=C(NO)c1cnc(N2CCN(S(=O)(=O)c3ccc4ccccc4c3)CC2)nc1	84.3% and 92.9% and 85.8%	81.2% and 79.9% and 84.2%	84% and 62.6% and 64.7%							
> 10 µM			O=C(c1cc(Cc2n[nH]c(=O)c3ccccc23)ccc1F)N1CCN(C(=O)C2CC2)CC1	90.9% and 100% and 96.4%	103% and 97.7% and 97.9%	94.8% and 86.2% and 99.2%	98.9% and 98.6% and 98.4%	123% and 104% and 94.1%	91.1% and 89.6% and 94.1%				
> 10 µM			O=c1[nH]cc(F)c(=O)[nH]1	93.1% and 96.1% and 94.6%	103% and 102% and 97.4%	85.9% and 79.7% and 88.7%	76.7% and 78.2% and 78.6%	79.4% and 74.2% and 76.8%	71.5% and 77.1% and 70.3%				
